Source: publication PMC4685510, “A Cell Biologist’s Field Guide to Aurora Kinase Inhibitors” (Frontiers in Oncology, 2015)

Tests used:
Test in all cases: biochemical
Format in all cases: biochemical
[1] = biological target: 363 human kinases (including Aurora A/B/C) (Homo sapiens, UniProt Q9H4B4); details: PLK3; for remaining activity at 0.1 µM: 100 nM; for remaining activity at 0.1 µM / remaining activity at 0.5 µM: read-out: % Enzyme Activity (relative to DMSO controls)
Text: (§1) However, the Aurora A/B selectivity ratios derived from our in vitro and in vivo data can be compared to prioritize inhibitors.

[2] = biological target: 363 human kinases (including Aurora A/B/C) (Homo sapiens, UniProt Q9HCP0); details: CK1g1, [ATP] 20 µM; for remaining activity at 0.1 µM: 100 nM; for remaining activity at 0.1 µM / remaining activity at 0.5 µM: read-out: % Enzyme Activity (relative to DMSO controls)
Text: as §1

[3] = biological target: 363 human kinases (including Aurora A/B/C) (Homo sapiens, UniProt P24723); details: PKCeta; for remaining activity at 0.1 µM: 100 nM; for remaining activity at 0.1 µM / remaining activity at 0.5 µM: read-out: % Enzyme Activity (relative to DMSO controls)
Text: as §1

[4] = biological target: 363 human kinases (including Aurora A/B/C) (Homo sapiens, UniProt Q9UK32); details: RSK4; for remaining activity at 0.1 µM: 100 nM; for remaining activity at 0.1 µM / remaining activity at 0.5 µM: read-out: % Enzyme Activity (relative to DMSO controls)
Text: as §1

[5] = biological target: T1, 363 human kinases (including Aurora A/B/C) (Homo sapiens, UniProt Q7L7X3); details: TAOK1; for remaining activity at 0.1 µM: 100 nM; for remaining activity at 0.1 µM / remaining activity at 0.5 µM: read-out: % Enzyme Activity (relative to DMSO controls)
T1 sequence (Q7L7X3 1-1001): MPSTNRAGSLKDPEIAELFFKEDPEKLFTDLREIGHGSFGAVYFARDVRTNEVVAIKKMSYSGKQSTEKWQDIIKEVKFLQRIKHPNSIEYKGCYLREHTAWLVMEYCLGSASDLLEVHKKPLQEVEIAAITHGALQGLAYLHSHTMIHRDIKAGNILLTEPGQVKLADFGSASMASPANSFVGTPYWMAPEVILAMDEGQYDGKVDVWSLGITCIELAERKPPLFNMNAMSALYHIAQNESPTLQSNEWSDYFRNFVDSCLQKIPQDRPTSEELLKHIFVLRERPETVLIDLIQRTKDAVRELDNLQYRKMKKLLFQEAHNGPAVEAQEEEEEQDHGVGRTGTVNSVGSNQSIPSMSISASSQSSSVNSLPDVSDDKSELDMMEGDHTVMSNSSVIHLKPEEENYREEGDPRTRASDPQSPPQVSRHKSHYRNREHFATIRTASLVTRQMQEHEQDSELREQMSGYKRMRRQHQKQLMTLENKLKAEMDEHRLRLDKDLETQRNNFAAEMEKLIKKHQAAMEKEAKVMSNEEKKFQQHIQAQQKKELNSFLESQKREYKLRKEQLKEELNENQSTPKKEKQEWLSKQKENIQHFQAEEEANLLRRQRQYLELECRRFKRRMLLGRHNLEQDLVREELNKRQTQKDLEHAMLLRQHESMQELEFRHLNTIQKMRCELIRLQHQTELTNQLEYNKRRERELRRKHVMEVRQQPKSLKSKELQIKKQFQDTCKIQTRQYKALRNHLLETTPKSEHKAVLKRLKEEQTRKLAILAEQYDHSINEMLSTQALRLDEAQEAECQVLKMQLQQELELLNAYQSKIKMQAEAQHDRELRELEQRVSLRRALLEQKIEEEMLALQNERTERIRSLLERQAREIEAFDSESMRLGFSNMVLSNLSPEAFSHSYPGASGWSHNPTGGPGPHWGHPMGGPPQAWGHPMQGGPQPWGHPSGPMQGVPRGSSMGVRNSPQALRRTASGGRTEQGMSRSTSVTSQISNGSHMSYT
Text: as §1

[6] = biological target: 363 human kinases (including Aurora A/B/C) (Homo sapiens, UniProt Q9UM73); details: ALK, [ATP] 50 µM; for remaining activity at 0.1 µM: 100 nM; for remaining activity at 0.1 µM / remaining activity at 0.5 µM: read-out: % Enzyme Activity (relative to DMSO controls)
Text: as §1

[7] = biological target: 363 human kinases (including Aurora A/B/C) (Homo sapiens, UniProt P80192); details: MLK1/MAP3K9; for remaining activity at 0.1 µM: 100 nM; for remaining activity at 0.1 µM / remaining activity at 0.5 µM: read-out: % Enzyme Activity (relative to DMSO controls)
Text: as §1

[8] = biological target: T2, 363 human kinases (including Aurora A/B/C) (Homo sapiens, UniProt Q96KB5); details: PBK/TOPK; for remaining activity at 0.1 µM: 100 nM; for remaining activity at 0.1 µM / remaining activity at 0.5 µM: read-out: % Enzyme Activity (relative to DMSO controls)
T2 sequence (Q96KB5 1-322): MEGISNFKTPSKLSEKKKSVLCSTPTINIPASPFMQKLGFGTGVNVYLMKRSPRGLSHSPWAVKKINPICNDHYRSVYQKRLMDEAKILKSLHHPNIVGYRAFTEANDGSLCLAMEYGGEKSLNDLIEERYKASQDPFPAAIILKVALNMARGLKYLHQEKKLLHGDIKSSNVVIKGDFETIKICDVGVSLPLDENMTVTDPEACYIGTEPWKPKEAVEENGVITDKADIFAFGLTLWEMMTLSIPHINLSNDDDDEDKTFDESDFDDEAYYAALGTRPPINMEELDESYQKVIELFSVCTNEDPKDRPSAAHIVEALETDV
Text: as §1

[9] = biological target: 363 human kinases (including Aurora A/B/C) (Homo sapiens, UniProt Q6P2M8); details: CAMK1b, [ATP] 5 µM; for remaining activity at 0.1 µM: 100 nM; for remaining activity at 0.1 µM / remaining activity at 0.5 µM: read-out: % Enzyme Activity (relative to DMSO controls)
Text: as §1

[10] = biological target: 363 human kinases (including Aurora A/B/C) (Homo sapiens, UniProt Q9BYP7); details: WNK3; for remaining activity at 0.1 µM: 100 nM; for remaining activity at 0.1 µM / remaining activity at 0.5 µM: read-out: % Enzyme Activity (relative to DMSO controls)
Text: as §1

[11] = biological target: 363 human kinases (including Aurora A/B/C) (Homo sapiens, UniProt O00506); details: STK25/YSK1; for remaining activity at 0.1 µM: 100 nM; for remaining activity at 0.1 µM / remaining activity at 0.5 µM: read-out: % Enzyme Activity (relative to DMSO controls)
Text: as §1

[12] = biological target: 363 human kinases (including Aurora A/B/C) (Homo sapiens, UniProt Q9H3Y6); details: SRMS; for remaining activity at 0.1 µM: 100 nM; for remaining activity at 0.1 µM / remaining activity at 0.5 µM: read-out: % Enzyme Activity (relative to DMSO controls)
Text: as §1

[13] = biological target: T3, 363 human kinases (including Aurora A/B/C) (Homo sapiens, UniProt P45985); details: MKK4; for remaining activity at 0.1 µM: 100 nM; for remaining activity at 0.1 µM / remaining activity at 0.5 µM: read-out: % Enzyme Activity (relative to DMSO controls)
T3 sequence (P45985 1-399): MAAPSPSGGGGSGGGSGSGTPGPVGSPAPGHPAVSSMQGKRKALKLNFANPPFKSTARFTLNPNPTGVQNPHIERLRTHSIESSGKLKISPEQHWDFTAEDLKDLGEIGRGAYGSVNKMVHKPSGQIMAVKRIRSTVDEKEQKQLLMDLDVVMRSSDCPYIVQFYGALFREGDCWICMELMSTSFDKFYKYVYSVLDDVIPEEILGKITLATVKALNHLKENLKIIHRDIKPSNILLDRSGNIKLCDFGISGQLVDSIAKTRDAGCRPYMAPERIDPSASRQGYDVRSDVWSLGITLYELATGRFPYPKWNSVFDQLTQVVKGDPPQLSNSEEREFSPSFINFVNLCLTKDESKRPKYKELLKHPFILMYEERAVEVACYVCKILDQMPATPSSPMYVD
Text: as §1

Sequence of 363 human kinases (including Aurora A/B/C) (Homo sapiens, UniProt Q9H4B4) (Q9H4B4 whole entry): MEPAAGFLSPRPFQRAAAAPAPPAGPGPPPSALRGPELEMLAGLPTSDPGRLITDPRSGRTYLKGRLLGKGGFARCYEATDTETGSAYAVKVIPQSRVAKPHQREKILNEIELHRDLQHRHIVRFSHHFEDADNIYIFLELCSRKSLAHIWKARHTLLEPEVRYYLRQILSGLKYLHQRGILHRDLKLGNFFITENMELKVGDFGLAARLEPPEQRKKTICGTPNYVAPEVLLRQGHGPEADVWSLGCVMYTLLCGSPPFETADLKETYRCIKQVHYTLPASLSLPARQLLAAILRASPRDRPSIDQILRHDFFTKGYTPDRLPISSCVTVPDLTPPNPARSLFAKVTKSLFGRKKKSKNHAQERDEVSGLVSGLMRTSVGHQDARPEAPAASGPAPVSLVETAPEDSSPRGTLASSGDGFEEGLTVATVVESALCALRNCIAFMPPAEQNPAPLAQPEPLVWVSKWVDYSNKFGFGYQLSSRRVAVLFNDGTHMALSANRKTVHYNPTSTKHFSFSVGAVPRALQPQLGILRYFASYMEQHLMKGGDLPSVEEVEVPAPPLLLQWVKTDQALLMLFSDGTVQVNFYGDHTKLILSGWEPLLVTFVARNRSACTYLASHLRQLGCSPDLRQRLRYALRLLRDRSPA
Sequence of 363 human kinases (including Aurora A/B/C) (Homo sapiens, UniProt Q9UK32) (Q9UK32 whole entry): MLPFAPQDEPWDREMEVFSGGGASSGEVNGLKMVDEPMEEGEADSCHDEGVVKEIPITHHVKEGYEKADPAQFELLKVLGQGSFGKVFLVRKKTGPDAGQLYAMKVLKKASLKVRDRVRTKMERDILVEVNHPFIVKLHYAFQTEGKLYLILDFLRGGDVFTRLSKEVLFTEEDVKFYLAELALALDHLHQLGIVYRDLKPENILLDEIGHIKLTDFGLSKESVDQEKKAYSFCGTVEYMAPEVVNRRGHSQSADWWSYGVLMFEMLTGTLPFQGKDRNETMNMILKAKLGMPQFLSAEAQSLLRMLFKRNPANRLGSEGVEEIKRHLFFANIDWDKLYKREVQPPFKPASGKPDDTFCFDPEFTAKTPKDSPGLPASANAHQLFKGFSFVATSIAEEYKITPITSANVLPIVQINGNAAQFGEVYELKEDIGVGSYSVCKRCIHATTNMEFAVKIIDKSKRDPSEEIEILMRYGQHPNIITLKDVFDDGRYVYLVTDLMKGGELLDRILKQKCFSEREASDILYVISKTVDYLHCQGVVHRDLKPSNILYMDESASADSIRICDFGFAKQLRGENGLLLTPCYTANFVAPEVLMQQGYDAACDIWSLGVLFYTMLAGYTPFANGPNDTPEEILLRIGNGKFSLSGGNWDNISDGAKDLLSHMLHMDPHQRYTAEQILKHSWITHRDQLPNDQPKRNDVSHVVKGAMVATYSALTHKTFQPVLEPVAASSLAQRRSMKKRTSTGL
Sequence of 363 human kinases (including Aurora A/B/C) (Homo sapiens, UniProt P80192) (P80192 whole entry): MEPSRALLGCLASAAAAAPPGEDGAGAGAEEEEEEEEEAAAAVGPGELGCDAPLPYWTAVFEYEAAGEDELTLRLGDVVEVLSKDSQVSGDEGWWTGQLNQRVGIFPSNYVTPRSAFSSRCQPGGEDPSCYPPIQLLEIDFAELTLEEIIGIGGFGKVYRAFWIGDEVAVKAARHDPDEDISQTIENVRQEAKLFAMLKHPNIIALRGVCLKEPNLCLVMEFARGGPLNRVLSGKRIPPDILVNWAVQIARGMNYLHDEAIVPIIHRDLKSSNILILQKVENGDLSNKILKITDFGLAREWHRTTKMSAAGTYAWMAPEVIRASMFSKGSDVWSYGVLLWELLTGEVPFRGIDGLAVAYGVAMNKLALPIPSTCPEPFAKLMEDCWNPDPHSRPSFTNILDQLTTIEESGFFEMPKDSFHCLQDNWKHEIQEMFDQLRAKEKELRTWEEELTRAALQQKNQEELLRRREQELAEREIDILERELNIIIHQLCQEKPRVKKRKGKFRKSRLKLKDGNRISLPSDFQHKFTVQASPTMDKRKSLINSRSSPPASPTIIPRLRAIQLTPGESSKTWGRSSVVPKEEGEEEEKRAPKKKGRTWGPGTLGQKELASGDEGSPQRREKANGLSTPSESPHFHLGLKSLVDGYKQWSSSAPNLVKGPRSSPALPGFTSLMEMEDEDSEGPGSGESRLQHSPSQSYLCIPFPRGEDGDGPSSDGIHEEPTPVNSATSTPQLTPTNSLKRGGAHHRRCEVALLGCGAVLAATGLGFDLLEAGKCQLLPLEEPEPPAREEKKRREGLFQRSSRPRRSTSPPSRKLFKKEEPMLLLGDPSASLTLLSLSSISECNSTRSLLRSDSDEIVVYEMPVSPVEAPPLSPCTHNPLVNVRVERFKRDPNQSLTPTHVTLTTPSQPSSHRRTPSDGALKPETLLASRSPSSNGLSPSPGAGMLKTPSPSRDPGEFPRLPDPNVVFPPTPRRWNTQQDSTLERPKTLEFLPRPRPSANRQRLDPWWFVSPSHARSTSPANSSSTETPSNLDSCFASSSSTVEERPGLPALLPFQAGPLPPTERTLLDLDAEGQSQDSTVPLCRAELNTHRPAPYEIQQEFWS
Sequence of 363 human kinases (including Aurora A/B/C) (Homo sapiens, UniProt P24723) (P24723 whole entry): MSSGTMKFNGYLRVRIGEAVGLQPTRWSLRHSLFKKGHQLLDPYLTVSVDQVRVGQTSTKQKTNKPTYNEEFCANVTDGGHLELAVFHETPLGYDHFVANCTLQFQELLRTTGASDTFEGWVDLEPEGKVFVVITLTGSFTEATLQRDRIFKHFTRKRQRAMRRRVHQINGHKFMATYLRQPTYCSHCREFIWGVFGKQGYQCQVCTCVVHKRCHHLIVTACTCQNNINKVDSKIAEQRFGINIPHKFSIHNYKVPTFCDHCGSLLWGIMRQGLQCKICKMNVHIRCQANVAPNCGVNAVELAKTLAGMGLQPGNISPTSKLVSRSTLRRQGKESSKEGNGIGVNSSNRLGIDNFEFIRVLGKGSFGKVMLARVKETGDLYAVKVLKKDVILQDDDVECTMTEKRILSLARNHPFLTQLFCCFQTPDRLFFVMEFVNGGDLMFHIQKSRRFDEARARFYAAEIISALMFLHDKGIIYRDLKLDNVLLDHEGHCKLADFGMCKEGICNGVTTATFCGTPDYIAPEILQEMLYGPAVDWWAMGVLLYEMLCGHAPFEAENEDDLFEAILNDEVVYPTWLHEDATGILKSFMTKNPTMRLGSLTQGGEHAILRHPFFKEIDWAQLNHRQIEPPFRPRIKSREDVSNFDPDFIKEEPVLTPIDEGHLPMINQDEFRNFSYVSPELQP
Sequence of 363 human kinases (including Aurora A/B/C) (Homo sapiens, UniProt Q9H3Y6) (Q9H3Y6 whole entry): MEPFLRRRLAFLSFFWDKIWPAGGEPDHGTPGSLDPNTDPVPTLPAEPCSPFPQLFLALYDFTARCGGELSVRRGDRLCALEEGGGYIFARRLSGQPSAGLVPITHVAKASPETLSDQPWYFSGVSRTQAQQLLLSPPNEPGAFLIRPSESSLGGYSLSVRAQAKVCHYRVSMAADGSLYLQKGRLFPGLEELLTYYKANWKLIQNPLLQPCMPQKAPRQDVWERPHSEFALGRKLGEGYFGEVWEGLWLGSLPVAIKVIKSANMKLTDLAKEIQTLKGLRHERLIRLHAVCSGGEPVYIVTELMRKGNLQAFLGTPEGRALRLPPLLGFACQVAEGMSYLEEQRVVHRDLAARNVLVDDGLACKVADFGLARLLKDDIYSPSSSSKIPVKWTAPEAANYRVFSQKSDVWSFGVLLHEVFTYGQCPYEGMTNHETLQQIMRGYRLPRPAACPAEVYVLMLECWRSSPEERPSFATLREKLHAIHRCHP
Sequence of 363 human kinases (including Aurora A/B/C) (Homo sapiens, UniProt O00506) (O00506 whole entry): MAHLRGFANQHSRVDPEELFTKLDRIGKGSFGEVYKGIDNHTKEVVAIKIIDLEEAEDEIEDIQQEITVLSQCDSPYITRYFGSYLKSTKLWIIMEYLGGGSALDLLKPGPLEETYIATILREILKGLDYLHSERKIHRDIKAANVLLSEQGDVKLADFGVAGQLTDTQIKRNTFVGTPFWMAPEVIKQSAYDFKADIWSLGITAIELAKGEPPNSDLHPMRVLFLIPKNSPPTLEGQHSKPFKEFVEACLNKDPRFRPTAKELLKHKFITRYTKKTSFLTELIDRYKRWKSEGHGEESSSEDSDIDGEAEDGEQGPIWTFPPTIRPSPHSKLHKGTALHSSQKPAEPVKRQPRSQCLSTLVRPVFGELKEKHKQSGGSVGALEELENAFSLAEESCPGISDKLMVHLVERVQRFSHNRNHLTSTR
Sequence of 363 human kinases (including Aurora A/B/C) (Homo sapiens, UniProt Q6P2M8) (Q6P2M8 whole entry): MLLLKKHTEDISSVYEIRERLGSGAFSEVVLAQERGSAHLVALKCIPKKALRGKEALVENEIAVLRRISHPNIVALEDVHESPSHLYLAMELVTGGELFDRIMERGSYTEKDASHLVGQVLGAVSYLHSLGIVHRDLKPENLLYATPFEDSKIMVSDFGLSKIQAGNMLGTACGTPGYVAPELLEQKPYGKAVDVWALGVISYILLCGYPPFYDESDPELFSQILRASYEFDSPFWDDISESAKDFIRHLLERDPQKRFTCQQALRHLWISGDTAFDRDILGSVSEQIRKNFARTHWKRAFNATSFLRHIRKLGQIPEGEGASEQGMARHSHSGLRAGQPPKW
Sequence of 363 human kinases (including Aurora A/B/C) (Homo sapiens, UniProt Q9HCP0) (Q9HCP0 whole entry): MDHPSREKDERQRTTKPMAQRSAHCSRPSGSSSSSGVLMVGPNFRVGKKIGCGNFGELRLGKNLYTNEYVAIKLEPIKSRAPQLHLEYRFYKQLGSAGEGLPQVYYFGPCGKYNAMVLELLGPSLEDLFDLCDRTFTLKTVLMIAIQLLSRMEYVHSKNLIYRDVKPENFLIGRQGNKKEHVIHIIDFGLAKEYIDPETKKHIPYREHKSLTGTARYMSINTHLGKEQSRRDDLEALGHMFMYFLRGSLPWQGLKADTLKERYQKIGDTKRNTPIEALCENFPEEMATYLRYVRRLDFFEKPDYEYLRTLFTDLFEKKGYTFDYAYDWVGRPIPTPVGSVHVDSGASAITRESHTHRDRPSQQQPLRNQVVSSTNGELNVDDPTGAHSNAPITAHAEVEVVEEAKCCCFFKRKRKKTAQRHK

Compound: CCn1cc(-c2ccnc3[nH]c(-c4cccc(CN(C)C)c4)cc23)c(-c2ccc(NC(=O)N(C)C)cc2)n1 [GSK1070916]
- remaining activity at 0.1 µM [1]: 101%
- remaining activity at 0.1 µM [2]: 104%
- remaining activity at 0.1 µM [3]: 103%
- remaining activity at 0.1 µM [4]: 93.6%
- remaining activity at 0.1 µM [5]: 96%
- remaining activity at 0.1 µM [6]: 98.4%
- remaining activity at 0.1 µM [7]: 97.6%
- remaining activity at 0.1 µM [8]: 97.5%
- remaining activity at 0.1 µM [9]: 99.4%
- remaining activity at 0.1 µM [10]: 110%
- remaining activity at 0.1 µM [11]: 98.9%
- remaining activity at 0.1 µM [12]: 95%
- remaining activity at 0.1 µM [13]: 90.1%

Compound: O=C(O)[C@]1(Cc2cccc(Nc3nccs3)n2)CC[C@@H](Oc2cccc(Cl)c2F)CC1 [MK-5108]
- remaining activity at 0.1 µM [1]: 103%
- remaining activity at 0.5 µM ([1]; 500 nM): 104%
- remaining activity at 0.1 µM [2]: 93.2%
- remaining activity at 0.5 µM ([2]; 500 nM): 101%
- remaining activity at 0.1 µM [3]: 134%
- remaining activity at 0.5 µM ([3]; 500 nM): 115%
- remaining activity at 0.1 µM [4]: 94.2%
- remaining activity at 0.5 µM ([4]; 500 nM): 90.1%
- remaining activity at 0.1 µM [5]: 89.5%
- remaining activity at 0.5 µM ([5]; 500 nM): 70.3%
- remaining activity at 0.1 µM [6]: 67%
- remaining activity at 0.5 µM ([6]; 500 nM): 30.9%
- remaining activity at 0.1 µM [7]: 88.5%
- remaining activity at 0.5 µM ([7]; 500 nM): 64.3%
- remaining activity at 0.1 µM [8]: 93.9%
- remaining activity at 0.5 µM ([8]; 500 nM): 95.4%
- remaining activity at 0.1 µM [9]: 89.2%
- remaining activity at 0.5 µM ([9]; 500 nM): 102%
- remaining activity at 0.1 µM [10]: 91.9%
- remaining activity at 0.5 µM ([10]; 500 nM): 63.4%
- remaining activity at 0.1 µM [11]: 104%
- remaining activity at 0.5 µM ([11]; 500 nM): 113%
- remaining activity at 0.1 µM [12]: 95.1%
- remaining activity at 0.5 µM ([12]; 500 nM): 94.8%
- remaining activity at 0.1 µM [13]: 95.7%
- remaining activity at 0.5 µM ([13]; 500 nM): 97.7%

Compound: O=C(c1cccc(Cl)c1F)N1CCN(Cc2cccc(Nc3nccs3)n2)CC1 [MK-8745]
- % Enzyme Activity (relative to DMSO controls) ([1]; 500 nM): 99.37%
- remaining activity at 0.5 µM ([1]; 500 nM): 102%
- % Enzyme Activity (relative to DMSO controls) ([2]; 500 nM): 98.16%
- remaining activity at 0.5 µM ([2]; 500 nM): 98.7%
- % Enzyme Activity (relative to DMSO controls) ([3]; 500 nM): 164.83%
- remaining activity at 0.5 µM ([3]; 500 nM): 166%
- % Enzyme Activity (relative to DMSO controls) ([4]; 500 nM): 94.73%
- remaining activity at 0.5 µM ([4]; 500 nM): 97.1%
- % Enzyme Activity (relative to DMSO controls) ([5]; 500 nM): 88.72%
- remaining activity at 0.5 µM ([5]; 500 nM): 89.7%
- % Enzyme Activity (relative to DMSO controls) ([6]; 500 nM): 78.97%
- remaining activity at 0.5 µM ([6]; 500 nM): 81%
- % Enzyme Activity (relative to DMSO controls) ([7]; 500 nM): 101.78%
- remaining activity at 0.5 µM ([7]; 500 nM): 102%
- % Enzyme Activity (relative to DMSO controls) ([8]; 500 nM): 91.24%
- remaining activity at 0.5 µM ([8]; 500 nM): 94.4%
- % Enzyme Activity (relative to DMSO controls) ([9]; 500 nM): 98.69%
- remaining activity at 0.5 µM ([9]; 500 nM): 100%
- % Enzyme Activity (relative to DMSO controls) ([10]; 500 nM): 106.70%
- remaining activity at 0.5 µM ([10]; 500 nM): 108%
- % Enzyme Activity (relative to DMSO controls) ([11]; 500 nM): 99.16%
- remaining activity at 0.5 µM ([11]; 500 nM): 100%
- % Enzyme Activity (relative to DMSO controls) ([12]; 500 nM): 96.62%
- remaining activity at 0.5 µM ([12]; 500 nM): 98.4%
- % Enzyme Activity (relative to DMSO controls) ([13]; 500 nM): 89.78%
- remaining activity at 0.5 µM ([13]; 500 nM): 90.9%
